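Values below derive from 48-hour exposures of cells grown in 96-well plates, with endpoints linearly interpolated between the two concentrations bracketing the appropriate inhibition level. TGI: total growth inhibition.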
Key:
Experiment in all cases: NCI tumour cell line growth inhibition, 48 h
MDA-MB-231 breast = tested on: MDA-MB-231 breast
SF-539 CNS = tested on: SF-539 CNS
HCT-116 colon = tested on: HCT-116 colon
MOLT-4 leukemia = tested on: MOLT-4 leukemia
HT29 colon = tested on: HT29 colon
MCF7 breast = tested on: MCF7 breast
RPMI-8226 leukemia = tested on: RPMI-8226 leukemia
SF-268 CNS = tested on: SF-268 CNS
SR leukemia = tested on: SR leukemia
NCI/ADR-RES ovarian = tested on: NCI/ADR-RES ovarian
LOX IMVI melanoma = tested on: LOX IMVI melanoma

| Structure (SMILES) | TGI (MDA-MB-231 breast) | TGI (SF-539 CNS) | TGI (HCT-116 colon) | TGI (MOLT-4 leukemia) | TGI (HT29 colon) | TGI (MCF7 breast) | TGI (RPMI-8226 leukemia) | TGI (SF-268 CNS) | TGI (SR leukemia) | TGI (NCI/ADR-RES ovarian) | TGI (LOX IMVI melanoma) |
| --- | --- | --- | --- | --- | --- | --- | --- | --- | --- | --- | --- |
| CCOC(=O)c1nc2ccccc2nc1Nc1ccc(OC)c(OC)c1 | > 100 µM | > 100 µM | > 100 µM | > 100 µM | > 100 µM | > 100 µM | > 100 µM | > 100 µM | > 100 µM | > 100 µM |  |
| [N-]=[N+]=Nc1c(C=O)c(=O)n(-c2ccccc2)c2ccccc12 | > 100 µM | > 100 µM |  | 12.7 µM | 55.1 µM | 64.2 µM |  | > 100 µM |  | 88.5 µM | 31.3 µM |
| Cc1cc(C)c2c(c1)CC1(Cc3c(C)ccc(C)c3C1=O)C2=O (configuration not stated) | > 100 µM | > 100 µM |  | > 100 µM |  | > 100 µM | > 100 µM | > 100 µM | > 100 µM | > 100 µM |  |
| O=C(Cc1csc(N=Nc2c(O)[nH]c3ccccc23)n1)Nc1ccccc1 | > 100 µM | 79.4 µM | 50.8 µM | > 100 µM | 59 µM | > 100 µM |  | 41.4 µM |  | 41 µM | > 100 µM |
| COC(C(=O)C(O)C(C)O)C1CC2C=C3C=C(OC4CC(OC5CC(O)C(OC)C(C)O5)C(OC(C)=O)C(C)O4)C(C)C(=O)C3=C(O)C2=C(O)C1OC1CC(OC2CC(OC3CC(C)(O)C(OC(=O)C(C)C)C(C)O3)C(O)C(C)O2)C(O)C(C)O1 (configuration not stated) | < 0.01 µM | < 0.01 µM | > 100 µM | > 100 µM |  | > 100 µM | < 0.01 µM | < 0.01 µM | < 0.01 µM | 0.425 µM |  |
| CCOC(=O)c1sc(N/N=C2\NC(=O)/C(=C/c3ccc([N+](=O)[O-])cc3)S2)nc1C | 49.2 µM | 40.7 µM | 36.7 µM | 31.1 µM | 51 µM | 72.5 µM |  | > 100 µM | 29.4 µM | 66.1 µM | 46.1 µM |
| Cc1ccc(S(=O)(=O)N2C[C@](O)(c3ccccc3)[C@H]2C)cc1 | > 100 µM | > 100 µM | > 100 µM | > 100 µM | > 100 µM | > 100 µM |  | > 100 µM |  | > 100 µM | > 100 µM |
| O=C(O)Cc1ccc(Oc2nc3ccccc3nc2C(=O)O)cc1 | > 100 µM | > 100 µM | > 100 µM |  | > 100 µM | > 100 µM | > 100 µM | > 100 µM | > 100 µM | > 100 µM | > 100 µM |
| COc1cc(NC(C)=O)ccc1C(=O)NN1C(=O)C(Cl)C1c1ccco1 (configuration not stated) |  | > 100 µM | > 100 µM | > 100 µM | > 100 µM | > 100 µM | > 100 µM | > 100 µM | > 100 µM | > 100 µM | > 100 µM |
| CCOC(=O)Cc1csc2[n+]1C(=O)/C(=C\c1cccc(Cl)c1Cl)S2 | 87.4 µM | 47.1 µM | 25.7 µM | 33.5 µM | 41.2 µM | > 100 µM |  | 80.2 µM |  | 33.2 µM | 42.2 µM |
| Brc1c(C#CCC(c2ccccc2)(c2ccccc2)c2ccccc2)ccc(C#CCC(c2ccccc2)(c2ccccc2)c2ccccc2)c1Br | > 100 µM | > 100 µM | > 100 µM | > 100 µM | > 100 µM | > 100 µM | > 100 µM | > 100 µM | > 100 µM | > 100 µM |  |
| Cc1c2c(n(CCc3ccccc3)c1C)N(C)N=C(C#N)S2(=O)=O | > 100 µM | > 100 µM | > 100 µM | > 100 µM | > 100 µM | > 100 µM | > 100 µM | > 100 µM | > 100 µM | > 100 µM |  |
| Cc1ccc2c(sc(-c3ccc4c(c3)sc(-c3ccc5c(c3)sc(-c3ccc(N(C)C)cc3)[n+]5C)[n+]4C)[n+]2C)c1S(=O)(=O)O (tested in a mixture with another compound) | > 100 µM | > 100 µM | > 100 µM | > 100 µM | > 100 µM | > 100 µM | > 100 µM | > 100 µM |  | > 100 µM | > 100 µM |
| CC(=O)Oc1cc2c(c3ncccc13)OC(C)(C)C2 | 24.4 µM | 26.9 µM | 27.5 µM | 29.9 µM | 36.9 µM | 61.8 µM | > 100 µM | 25.9 µM | 6 µM | 23.9 µM |  |
| Cc1nc2c(nc1C)-c1c(c3c(n1C)C(=O)CCC3)C(=O)C2=O | 0.803 µM | 2.51 µM | 1.44 µM |  | 3.89 µM | 0.358 µM | 0.636 µM | 1.22 µM | 0.769 µM | 2.05 µM | 0.397 µM |
| C=C(C)C1CC/C(C)=C/CC[C@]2(C)O[C@H]2CC/C(COC(C)=O)=C\[C@@H]1O (some centres not stated) | > 50 µM | > 50 µM | > 50 µM | > 50 µM | > 50 µM | > 50 µM | > 50 µM | > 50 µM | > 50 µM | > 50 µM |  |
| C=C(C)CC1(O)C(=O)C(OCC)=C1OCC (configuration not stated) | > 100 µM | > 100 µM | > 100 µM | > 100 µM | > 100 µM | > 100 µM |  | > 100 µM |  | > 100 µM | > 100 µM |
| C/C(=N\Nc1nc2ccccc2n1C)c1cnccn1 | 71.9 µM | > 100 µM |  | > 100 µM | > 42.5 µM | > 100 µM |  | > 100 µM | > 100 µM | 3.14 µM | > 20 µM |
| COc1cc(/C=C2/SC(c3ccccc3)N(c3ccccc3)C2=O)cc(OC)c1OC (configuration not stated) | > 100 µM | > 100 µM | > 100 µM | > 100 µM |  | > 100 µM | 66.6 µM | > 100 µM | > 100 µM | > 100 µM | > 100 µM |
| C/C=C\C(CC(=O)NCCC1CN(S(=O)(=O)C(F)(F)F)c2ccccc21)CC(=O)OC (configuration not stated) | > 100 µM |  | > 100 µM | > 100 µM | 51.3 µM | > 100 µM | > 100 µM |  | > 100 µM | > 100 µM |  |
| CC1(C)CC(=O)C2=C(C1)NC1=C(C(=O)CC(C)(C)C1)C2c1ccc([N+](=O)[O-])cc1 | > 100 µM | > 100 µM | > 100 µM | > 100 µM | > 100 µM | > 100 µM | > 100 µM | > 100 µM |  |  | > 100 µM |

From PubChem BioAssay (NCI)
